Test results reported in ChEMBL document CHEMBL5143558, “Synthesis of sorbicillinoid analogues with anti-inflammation activities” (Bioorg Med Chem, 2022).
Active and inactive are the calls of the source. No cut-off for these calls is given here.

Legend:
RAW264.7 [1] = assay: Anti-inflammatory activity in mouse RAW264.7 cells assessed as inhibition of LPS-induced iNOS protein expression at 10 uM incubated for 24 hrs by Western blot analysis; type: functional, cell-based
RAW264.7 [2] = assay: Anti-inflammatory activity in mouse RAW264.7 cells assessed as inhibition of LPS-induced NO production at 10 uM; type: functional, cell-based
[3] = Toxicity in mouse RAW264.7 cells assessed as reduction in cell vaibility at 10 uM; type: cell-based; conditions: raw264.7, 10 µM
RAW264.7 [4] = assay: Anti-inflammatory activity in mouse RAW264.7 cells assessed as inhibition of LPS-induced p-NFkappaB protein expression at 10 uM incubated for 24 hrs by Western blot analysis; type: functional, cell-based
RAW264.7 [5] = assay: Anti-inflammatory activity in mouse RAW264.7 cells assessed as inhibition of LPS-induced NO production at 20 uM; type: functional, cell-based
RAW264.7 [6] = assay: Anti-inflammatory activity in mouse RAW264.7 cells assessed as inhibition of LPS-induced iNOS protein expression at 1 to 20 uM incubated for 24 hrs by Western blot analysis; type: functional, cell-based; conditions: dose 1-20 µM, DDE = dose-dependent effect
[7] = Toxicity in mouse RAW264.7 cells assessed as reduction in cell vaibility at 20 uM incubated for 24 hrs; type: cell-based; conditions: raw264.7, 24 h
RAW264.7 [8] = assay: Anti-inflammatory activity in mouse RAW264.7 cells assessed as inhibition of LPS-induced NO production at 1 to 20 uM incubated for 24 hrs; type: functional, cell-based; conditions: dose 1-20 µM, DDE = dose-dependent effect

Structure (SMILES)	inhibition (RAW264.7 [1])	inhibition (RAW264.7 [2])	Activity [3]	inhibition (RAW264.7 [4])	inhibition (RAW264.7 [5])	inhibition (RAW264.7 [6])	Activity [7]	inhibition (RAW264.7 [8])
Cc1cc(C(=O)/C=C/c2ccccc2)c(O)cc1O	Active	Active	Non-Toxic	–	–	–	–	–
COc1cc(O)c(C(=O)/C=C/c2ccc(F)cc2)cc1C	Active	Active	Non-Toxic	–	–	–	–	–
Cc1cc(C(=O)CCc2ccccc2)c(O)c(C)c1O	–	–	Non-Toxic	Active	–	–	–	–
C/C=C/C(=O)c1cc(C)c(OC)c(C)c1OC	Active	Active	Non-Toxic	–	–	–	–	–
Cc1cc(C(=O)/C=C/c2ccc(Cl)cc2)c(O)c(C)c1OC(=O)/C=C/c1ccc(Cl)cc1	Active	–	Non-Toxic	–	–	–	–	–
C/C=C/C(=O)c1cc(C)c(O)c(C)c1O	Active	Active	Non-Toxic	–	–	–	–	–
C/C=C/C(=O)c1cc(C)c(O)cc1O	Active	Active	Non-Toxic	–	–	–	–	–
COc1cc(O)c(C(=O)/C=C/c2ccccc2)cc1C	Active	Active	Non-Toxic	–	–	–	–	–
COc1cc(OC)c(C(=O)/C=C/c2ccccc2)cc1C	Active	Active	Non-Toxic	–	–	–	–	–
C/C=C/C=C/C(=O)Oc1c(C)cc(C(=O)/C=C/C=C/C)c(O)c1C	Active	Active	Non-Toxic	–	–	–	–	–
COc1ccc(/C=C/C(=O)c2cc(C)c(O)c(C)c2O)cc1	Active	Active	Non-Toxic	–	–	–	–	–
C/C=C/C=C/C(=O)c1cc(C)c(O)c(C)c1O	–	Active	Non-Toxic	Active	–	–	–	–
COc1cc(/C=C/C(=O)CC(=O)/C=C/c2ccc(O)c(OC)c2)ccc1O	–	–	–	–	Active	–	–	–
Cc1ccc(OC(=O)/C=C/c2ccc(Cl)cc2)c(C)c1OC(=O)/C=C/c1ccc(Cl)cc1	Active	Active	Non-Toxic	–	–	–	–	–
C/C=C/C(=O)c1cc(C)c(OC)cc1OC	Active	Active	Non-Toxic	–	–	–	–	–
C[C@]12CCC(=O)C=C1CC[C@@H]1[C@@H]2[C@@H](O)C[C@@]2(C)[C@H]1CC[C@]2(O)C(=O)CO	–	–	–	–	Active	–	–	–

Structure (SMILES)	inhibition (RAW264.7 [1])	inhibition (RAW264.7 [2])	Activity [3]	inhibition (RAW264.7 [4])	inhibition (RAW264.7 [5])	inhibition (RAW264.7 [6])	Activity [7]	inhibition (RAW264.7 [8])
COc1cc(/C=C/C(=O)c2cc(C)c(OC)c(C)c2OC)cc(OC)c1OC	Active	Active	Non-Toxic	–	–	–	–	–
Cc1cc(C(=O)/C=C/c2ccccc2)c(O)c(C)c1O	Active	Active	Non-Toxic	Active	–	–	–	–
COc1cc(/C=C/C(=O)c2cc(C)c(O)c(C)c2O)cc(OC)c1OC	Active	Active	Non-Toxic	–	–	Dde	Non-Toxic	Dde
COc1ccc(/C=C/C(=O)c2cc(C)c(OC)cc2OC)cc1	–	–	Non-Toxic	–	–	–	–	–
C/C=C/C(=O)Oc1c(C)cc(C(=O)/C=C/C)c(O)c1C	Active	Active	Non-Toxic	–	–	–	–	–
CC(C)=CC(=O)Oc1ccc(C)c(OC(=O)C=C(C)C)c1C	–	–	Non-Toxic	Active	–	–	–	–
Cc1cc(C(=O)/C=C/c2ccc3c(c2)OCO3)c(O)c(C)c1O	Active	–	Non-Toxic	–	–	–	–	–
Cc1cc(C(=O)/C=C/c2ccc(F)cc2)c(O)c(C)c1O	Active	Active	Non-Toxic	–	–	Dde	Non-Toxic	Dde
COc1cc(OC)c(C(=O)/C=C/c2cc(OC)c(OC)c(OC)c2)cc1C	Active	Active	Non-Toxic	–	–	–	–	–
COc1cc(OC)c(C(=O)/C=C/c2ccc(F)cc2)cc1C	Active	Active	Non-Toxic	–	–	–	–	–
Cc1cc(C(=O)/C=C/c2ccc(F)cc2)c(O)cc1O	Active	Active	Non-Toxic	–	–	–	–	–
Cc1ccc(/C=C/C(=O)c2cc(C)c(O)c(C)c2O)cc1	Active	Active	Non-Toxic	–	–	–	–	–
Cc1cc(C(=O)/C=C/c2ccc(F)cc2)c(O)c(C)c1OC(=O)/C=C/c1ccc(F)cc1	Active	–	Non-Toxic	–	–	–	–	–
CC(C)=CC(=O)Oc1c(C)cc(C(=O)C=C(C)C)c(O)c1C	Active	Active	Non-Toxic	–	–	–	–	–
C/C=C/C=C/C(=O)Oc1ccc(C)c(OC(=O)/C=C/C=C/C)c1C	–	–	Non-Toxic	–	–	–	–	–
